In US10047050B2, “3,4-di-substituted pyridine compound, methods of using and compositions comprising the same” (ARDEA BIOSCIENCES, INC., priority 2011, dated 2018):
Values joined by “and” are separate entries in the source; they are usually repeats but may differ in a detail not shown here. Identical values can stand only once.

System: serum uric acid
Assay: Multi-dose Phase I clinical trial, serum uric acid (sUA), once daily for 10 days
Assay type: in vivo, human
Settings: for Absolute sUA concentration: individual subjects 4-12; for Absolute sUA concentration, Mean (4-10): mean of subjects 4-10
Source text: A Phase 1, Randomized, Double-Blind, Placebo-Controlled Study to Evaluate Safety, Tolerability, Pharmacokinetics and Preliminary Food Effect of Multiple Rising Doses of a URAT1 Inhibitor, in Healthy Adult Male Volunteers.
Fasted subjects receive oral doses of active or placebo, once daily, for 10 days, at the following doses:
36 subjects in 3 dose groups, 12 subjects/group, are randomized […] to receive active (9/group) or placebo ([…]). All study procedures are the same regardless of whether subject receives active or placebo. Total duration of subject participation, including screening period, is ˜2-4 weeks, and the total volume of blood collected from each subject during the entire study <500 mL, (less than typically collected during a volunteer blood donation).
5 mg, active and placebo, tablets packaged in 35 count HDPE bottles, stored at controlled room temperature (15-30° C.). Placebo tablets are designed to match the active tablets—identical size, form, taste, and color, and containing the same excipients. 1 mg doses were administered as oral solutions.
Subjects dosed in the morning of Days 1-10 with ˜240 mL of room temp water.
Urine, serum and plasma samples collected periodically
PD samples frozen (−20° C.) and stored; all samples from a given subject assayed in a single analytical run.

[1] = group 7, 1 mg once daily for 10 days, Time 192, mean of subjects 4-12
[2] = group 7, 1 mg once daily for 10 days, Time 216, mean of subjects 4-12
[3] = group 7, 1 mg once daily for 10 days, Time 222 (post dosing), mean of subjects 4-12
[4] = group 7, 1 mg once daily for 10 days, Time 228 (post dosing), mean of subjects 4-12
[5] = group 7, 1 mg once daily for 10 days, Time 240 (post dosing), mean of subjects 4-12
[6] = group 7, 1 mg once daily for 10 days, Time 246 (post dosing), mean of subjects 4-12
[7] = group 7, 1 mg once daily for 10 days, Time 252 (post dosing), mean of subjects 4-12
[8] = group 7, 1 mg once daily for 10 days, Time 264 (post dosing), mean of subjects 4-12
[9] = group 7, 1 mg once daily for 10 days, Time 270 (post dosing), mean of subjects 4-12
[10] = group 7, 1 mg once daily for 10 days, Time 288 (post dosing), mean of subjects 4-12
[11] = group 7, 1 mg once daily for 10 days, Time 312 (post dosing), mean of subjects 4-12

CC(C)(Sc1ccncc1-c1ccc(C#N)c2ccccc12)C(=O)O [2-((3-(4-cyanonaphthalen-1-yl)pyridin-4-yl)thio)-2-methylpropanoic acid]
Absolute sUA concentration, Mean (4-12) (group 7, 1 mg once daily for 10 days, Time 168, mean of subjects 4-12): 6.1 mg/dL | Absolute sUA concentration (group 7, 1 mg once daily for 10 days, Time 192): 4.6 mg/dL and 5.0 mg/dL and 4.9 mg/dL and 6.5 mg/dL and 6.1 mg/dL and 5.9 mg/dL and 5.6 mg/dL and 5.1 mg/dL and 5.5 mg/dL | % sUA change (from baseline), Mean (4-12) [1]: −11.4% | Absolute sUA concentration, Mean (4-12) [1]: 5.5 mg/dL | Absolute sUA concentration (group 7, 1 mg once daily for 10 days, Time 216): 4.7 mg/dL (2×) and 4.9 mg/dL (2×) and 6.1 mg/dL and 5.8 mg/dL and 5.3 mg/dL and 5.6 mg/dL and 5.9 mg/dL | % sUA change (from baseline), Mean (4-12) [2]: −13.6% | Absolute sUA concentration, Mean (4-12) [2]: 5.3 mg/dL | Absolute sUA concentration (group 7, 1 mg once daily for 10 days, Time 222 (post dosing)): 4.7 mg/dL and 5.2 mg/dL and 4.9 mg/dL and 6.3 mg/dL and 5.9 mg/dL and 5.8 mg/dL and 5.4 mg/dL and 5.0 mg/dL and 5.5 mg/dL | % sUA change (from baseline), Mean (4-12) [3]: −12.2% | Absolute sUA concentration, Mean (4-12) [3]: 5.4 mg/dL | Absolute sUA concentration (group 7, 1 mg once daily for 10 days, Time 228 (post dosing)): 4.3 mg/dL and 4.8 mg/dL (2×) and 4.9 mg/dL and 6.2 mg/dL and 5.6 mg/dL and 5.5 mg/dL and 5.3 mg/dL and 5.4 mg/dL | % sUA change (from baseline), Mean (4-12) [4]: −15.6% | Absolute sUA concentration, Mean (4-12) [4]: 5.2 mg/dL | Absolute sUA concentration (group 7, 1 mg once daily for 10 days, Time 240 (post dosing)): 4.8 mg/dL and 5.5 mg/dL and 5.3 mg/dL and 6.9 mg/dL and 6.2 mg/dL (2×) and 5.9 mg/dL and 5.2 mg/dL and 6.0 mg/dL | % sUA change (from baseline), Mean (4-12) [5]: −6.3% | Absolute sUA concentration, Mean (4-12) [5]: 5.8 mg/dL | Absolute sUA concentration (group 7, 1 mg once daily for 10 days, Time 246 (post dosing)): 4.4 mg/dL | % sUA change (from baseline), Mean (4-12) [6]: −13.2% | Absolute sUA concentration, Mean (4-12) [6]: 5.4 mg/dL | % sUA change (from baseline), Mean (4-12) [7]: −10.6% | Absolute sUA concentration, Mean (4-12) [7]: 5.5 mg/dL | % sUA change (from baseline), Mean (4-12) [8]: −10.3% | Absolute sUA concentration, Mean (4-12) [8]: 5.5 mg/dL | % sUA change (from baseline), Mean (4-12) [9]: −17.4% | Absolute sUA concentration, Mean (4-12) [9]: 5.1 mg/dL | % sUA change (from baseline), Mean (4-12) [10]: −19.8% | Absolute sUA concentration, Mean (4-12) [10]: 5.0 mg/dL | % sUA change (from baseline), Mean (4-12) [11]: −14.9% | Absolute sUA concentration, Mean (4-12) [11]: 5.3 mg/dL | % sUA change (from baseline), Mean (4-12) (group 8, 5 mg once daily for 10 days, Time 0, mean of active subjects): 0% | Absolute sUA concentration, Mean (4-10) (group 8, 5 mg once daily for 10 days, Time 0): 5.9 mg/dL | % sUA change (from baseline), Mean (4-12) (group 8, 5 mg once daily for 10 days, Time 6, mean of active subjects): −20.5% | Absolute sUA concentration, Mean (4-10) (group 8, 5 mg once daily for 10 days, Time 6): 4.7 mg/dL | % sUA change (from baseline), Mean (4-12) (group 8, 5 mg once daily for 10 days, Time 12, mean of active subjects): −25.6% | Absolute sUA concentration, Mean (4-10) (group 8, 5 mg once daily for 10 days, Time 12): 4.4 mg/dL | % sUA change (from baseline), Mean (4-12) (group 8, 5 mg once daily for 10 days, Time 24, mean of active subjects): −21.1% | Absolute sUA concentration, Mean (4-10) (group 8, 5 mg once daily for 10 days, Time 24): 4.7 mg/dL | % sUA change (from baseline), Mean (4-12) (group 8, 5 mg once daily for 10 days, Time 48, mean of active subjects): −30.9% | Absolute sUA concentration, Mean (4-10) (group 8, 5 mg once daily for 10 days, Time 48): 4.1 mg/dL | % sUA change (from baseline), Mean (4-12) (group 8, 5 mg once daily for 10 days, Time 72, mean of active subjects): −33.7% | Absolute sUA concentration, Mean (4-10) (group 8, 5 mg once daily for 10 days, Time 72): 3.9 mg/dL | % sUA change (from baseline), Mean (4-12) (group 8, 5 mg once daily for 10 days, Time 96, mean of active subjects): −30.4% | Absolute sUA concentration, Mean (4-10) (group 8, 5 mg once daily for 10 days, Time 96): 4.1 mg/dL | % sUA change (from baseline), Mean (4-12) (group 8, 5 mg once daily for 10 days, Time 102, mean of active subjects): −37.8% | Absolute sUA concentration, Mean (4-10) (group 8, 5 mg once daily for 10 days, Time 102): 3.7 mg/dL | % sUA change (from baseline), Mean (4-12) (group 8, 5 mg once daily for 10 days, Time 108, mean of active subjects): −40.2% | Absolute sUA concentration, Mean (4-10) (group 8, 5 mg once daily for 10 days, Time 108): 3.5 mg/dL | % sUA change (from baseline), Mean (4-12) (group 8, 5 mg once daily for 10 days, Time 120, mean of active subjects): −30% | Absolute sUA concentration, Mean (4-10) (group 8, 5 mg once daily for 10 days, Time 120): 4.1 mg/dL | % sUA change (from baseline), Mean (4-12) (group 8, 5 mg once daily for 10 days, Time 144, mean of active subjects): −35.2% | Absolute sUA concentration, Mean (4-10) (group 8, 5 mg once daily for 10 days, Time 144): 3.8 mg/dL | % sUA change (from baseline), Mean (4-12) (group 8, 5 mg once daily for 10 days, Time 168, mean of active subjects): −38.1% | Absolute sUA concentration, Mean (4-10) (group 8, 5 mg once daily for 10 days, Time 168): 3.6 mg/dL | % sUA change (from baseline), Mean (4-12) (group 8, 5 mg once daily for 10 days, Time 192, mean of active subjects): −35.7% | Absolute sUA concentration, Mean (4-10) (group 8, 5 mg once daily for 10 days, Time 192): 3.8 mg/dL | % sUA change (from baseline), Mean (4-12) (group 8, 5 mg once daily for 10 days, Time 216, mean of active subjects): −33.4% | Absolute sUA concentration, Mean (4-10) (group 8, 5 mg once daily for 10 days, Time 216): 3.9 mg/dL | % sUA change (from baseline), Mean (4-12) (group 8, 5 mg once daily for 10 days, Time 222 (post dosing), mean of active subjects): −39.6% | Absolute sUA concentration, Mean (4-10) (group 8, 5 mg once daily for 10 days, Time 222 (post dosing)): 3.6 mg/dL | % sUA change (from baseline), Mean (4-12) (group 8, 5 mg once daily for 10 days, Time 228 (post dosing), mean of active subjects): −41.4% | Absolute sUA concentration, Mean (4-10) (group 8, 5 mg once daily for 10 days, Time 228 (post dosing)): 3.5 mg/dL | % sUA change (from baseline), Mean (4-12) (group 8, 5 mg once daily for 10 days, Time 240 (post dosing), mean of active subjects): −31.2% | Absolute sUA concentration, Mean (4-10) (group 8, 5 mg once daily for 10 days, Time 240 (post dosing)): 4.1 mg/dL | % sUA change (from baseline), Mean (4-12) (group 8, 5 mg once daily for 10 days, Time 246 (post dosing), mean of active subjects): −35.8% | Absolute sUA concentration, Mean (4-10) (group 8, 5 mg once daily for 10 days, Time 246 (post dosing)): 3.8 mg/dL | % sUA change (from baseline), Mean (4-12) (group 8, 5 mg once daily for 10 days, Time 252 (post dosing), mean of active subjects): −39.1% | Absolute sUA concentration, Mean (4-10) (group 8, 5 mg once daily for 10 days, Time 252 (post dosing)): 3.6 mg/dL | % sUA change (from baseline), Mean (4-12) (group 8, 5 mg once daily for 10 days, Time 264 (post dosing), mean of active subjects): −31.9% | Absolute sUA concentration, Mean (4-10) (group 8, 5 mg once daily for 10 days, Time 264 (post dosing)): 4.0 mg/dL | % sUA change (from baseline), Mean (4-12) (group 8, 5 mg once daily for 10 days, Time 270 (post dosing), mean of active subjects): −22.9% | Absolute sUA concentration, Mean (4-10) (group 8, 5 mg once daily for 10 days, Time 270 (post dosing)): 4.5 mg/dL | % sUA change (from baseline), Mean (4-12) (group 8, 5 mg once daily for 10 days, Time 288 (post dosing), mean of active subjects): −24.8% | Absolute sUA concentration, Mean (4-10) (group 8, 5 mg once daily for 10 days, Time 288 (post dosing)): 4.4 mg/dL | % sUA change (from baseline), Mean (4-12) (group 8, 5 mg once daily for 10 days, Time 312 (post dosing), mean of active subjects): −13.7% | Absolute sUA concentration, Mean (4-10) (group 8, 5 mg once daily for 10 days, Time 312 (post dosing)): 5.1 mg/dL
